Data published in patent US8822423B2 (Janssen Biotech, Inc., priority 2012, dated 2014).
Ends that are not written are not given here.

System: not given
Assay: not given
Conditions: given by IV infusion; cited from earlier work

Row | Substance | half-life
1 | infliximab: chimeric IgG1κ monoclonal antibody that blocks the action of TNF-alpha | approximately eight

System: infliximab
Assay: Infliximab affinity peptide ELISA, concentration dependent binding
Conditions: biotinylated synthesized peptides, 0.0028-500 micromolar, FIG. 5
Description: 96-well black ELISA plates were coated with goat anti-human Fc (Jackson Immunoresearch Laboratories, Inc., West Grove, Pa., cat. #109-006-098) at a concentration of 5 micrograms/mL in PBS. Plates were incubated overnight at 4° C. Plates were washed 3 times with TBST using a plate washer. […] To all other wells, 100 microliters of PBS was introduced. The plates were again washed 3 times with TBST using the plate washer. The wells were then blocked with 250 microliters of a 3% dehydrated milk suspension in TBST and allowed to sit at room temperature for a minimum of 1 hour. Biotinylated, chemically synthesized peptides having SEQ ID NO: 2, SEQ ID NO: 3, SEQ ID NO: 10, and SEQ ID NO: 13 were prepared using standard, automated Fluorenylmethyloxycarbonyl (Fmoc) solid phase peptide synthesis procedures. Each peptide solution for the assay was prepared from a 500 micromolar stock solution. The stock solution was serially diluted in assay buffer resulting in peptide concentrations of 500, 166.6, 55.5, 18.5, 6.2, 2.1, 0.69, 0.23, 0.076, 0.025, 0.0085 and 0.0028 micromolar.
After blocking, the ELISA plate was washed 3 times with TBST and 100 microliters of the serially diluted peptides were added to the corresponding wells of the ELISA plate and allowed to sit at room temperature for a minimum of 1 hour. […] The luminescence was read using a luminometer set with a gain of 150.

Row | Substance | rank according to concentration-dependent binding to infliximab
2 | SEQ ID NO: 3: infliximab affinity peptide of FIG. 1; also chemically synthesized, biotinylated (AGTYCHPDQLRNLCPV; cysteine pairing not given here; also: biotinylated, position not given here) | SEQ ID NO: 2>SEQ ID NO: 10>SEQ ID NO: 3>SEQ ID NO: 13
3 | SEQ ID NO: 13: infliximab affinity peptide of FIG. 1; also chemically synthesized, biotinylated (AGPPCIVTQLSDLSFCAP; cysteine pairing not given here; also: biotinylated, position not given here) | SEQ ID NO: 2>SEQ ID NO: 10>SEQ ID NO: 3>SEQ ID NO: 13

System: infliximab
Assay: Confirmatory phage ELISA, binding of phage-displayed peptides to infliximab
Conditions: FIG. 3, N value of 2
Description: 96-well black ELISA plates were coated with streptavidin (Columns 1 through 4), mAb competitor (Columns 5 and 6), hIgG (Columns 7 and 8), human serum albumin (Columns 9 and 10) and collagen (Columns 11 and 12), at a concentration of 5 micrograms/mL in PBS. Plates were incubated overnight at 4° C. Plates were washed 3 times with TBST using a plate washer. To the streptavidin-coated wells in columns 3 and 4, 100 microliters of a 5 micrograms/mL solution of biotinylated-infliximab was introduced and allowed to sit at room temperature for 30 minutes. To all other wells, 100 microliters of PBS was introduced. The plates were again washed 3 times with TBST using the plate washer. The wells were then blocked with 250 microliters of a 3% dehydrated milk suspension in TBST and allowed to sit at room temperature for a minimum of 1 hour. Using phage concentrations determined by the phage titrations, dilutions of the phage stock solutions were performed in a separate 96-well plate to result in phage concentrations of 10^10, 10^9, 10^8, 10^7, 10^6 and 10^5 phage/well. After blocking, the ELISA plate was washed 3 times with TBST and 100 microliters of the phage dilutions were introduced to the respective ELISA plates and allowed to sit at room temperature for a minimum of 1 hour. The ELISA plate was again washed 3 times with TBST using the plate washer and 100 microliters of an horseradish peroxidase (HRP)-conjugated Anti-M13 Phage Mab (1:5000 dilution in PBS) was introduced to each well. The plates were allowed to sit at room temperature for 1 hour after which time the plates were washed 3 times with TBST. Next, a peroxidase-based (POD) HRP-substrate was introduced to each well. The luminescence was read using a luminometer set with a gain of 150.

Row | Substance | binding to infliximab (phage ELISA, relative luminescence)
4 | SEQ ID NO: 1: infliximab affinity peptide of FIG. 1, identified by pIX phage display (AGWTVAYVPPGPSYATS) | confirms the binding
5 | SEQ ID NO: 3: infliximab affinity peptide of FIG. 1; also chemically synthesized, biotinylated (AGTYCHPDQLRNLCPV; cysteine pairing not given here; also: biotinylated, position not given here) | confirms the binding
6 | SEQ ID NO: 4: infliximab affinity peptide of FIG. 1, identified by pIX phage display (AGVTCRMTEYGPMCPT) | confirms the binding
7 | SEQ ID NO: 5: infliximab affinity peptide of FIG. 1, identified by pIX phage display (AGNRCAYAAGTIQCFP) | confirms the binding
8 | SEQ ID NO: 6: infliximab affinity peptide of FIG. 1, identified by pIX phage display (AGEICYWHDTDWVCTE) | confirms the binding
9 | SEQ ID NO: 7: infliximab affinity peptide of FIG. 1, identified by pIX phage display (AGTHCSYVLGRIECLP) | confirms the binding
10 | SEQ ID NO: 8: infliximab affinity peptide of FIG. 1, identified by pIX phage display (AGNYCHPDQLSQFCAR) | confirms the binding
11 | SEQ ID NO: 9: infliximab affinity peptide of FIG. 1, identified by pIX phage display (AGVACHSTGTNIYTCTY) | confirms the binding
12 | SEQ ID NO: 11: infliximab affinity peptide of FIG. 1, identified by pIX phage display (AGSLCHTVGSGIYNCTK) | confirms the binding
13 | SEQ ID NO: 12: infliximab affinity peptide of FIG. 1, identified by pIX phage display (AGIQCHDVGAGVVTCTY) | confirms the binding
14 | SEQ ID NO: 13: infliximab affinity peptide of FIG. 1; also chemically synthesized, biotinylated (AGPPCIVTQLSDLSFCAP; cysteine pairing not given here; also: biotinylated, position not given here) | confirms the binding
15 | SEQ ID NO: 14: infliximab affinity peptide of FIG. 1, identified by pIX phage display (AGARCAPAFDANWLICSN) | confirms the binding
16 | SEQ ID NO: 15: infliximab affinity peptide of FIG. 1, identified by pIX phage display (AGPPCAAAMAQAQLACTH) | confirms the binding
17 | SEQ ID NO: 16: infliximab affinity peptide of FIG. 1, identified by pIX phage display (AGVVCATPEWTWDPACAT) | confirms the binding
18 | SEQ ID NO: 17: infliximab affinity peptide of FIG. 1, identified by pIX phage display (AGLLCAPSLDPDYILCDQ) | confirms the binding
19 | SEQ ID NO: 18: infliximab affinity peptide of FIG. 1; wild type for site-directed mutagenesis (AG-XXXX-PWPPTAES-XXXX mutants) (AGLLCEPWPPTAESICRS) | confirms the binding
20 | SEQ ID NO: 19: infliximab affinity peptide of FIG. 1, identified by pIX phage display (AGPPYTVFVHL) | confirms the binding
21 | SEQ ID NO: 20: infliximab affinity peptide of FIG. 1, identified by pIX phage display (AGYCISDYIDPCH) | confirms the binding
22 | SEQ ID NO: 21: infliximab affinity peptide of FIG. 1, identified by pIX phage display (AGPCISDYFDPCH) | confirms the binding
23 | SEQ ID NO: 22: infliximab affinity peptide of FIG. 1, identified by pIX phage display (AGLCPELPHC) | confirms the binding
24 | SEQ ID NO: 23: infliximab affinity peptide of FIG. 1, identified by pIX phage display (AGPCPELPHCTY) | confirms the binding

System: WEHI-13VAR mouse fibroblasts
Assay: In vitro bioactivity of infliximab in the presence of affinity peptides, MTT cell viability with TNF-α
Type: cell-based
Conditions: peptide 66 nanomolar, infliximab 0-66 nanomolar, overnight, FIG. 7
Description: In this experiment, we determined if the affinity peptides would interfere with the binding of tumor necrosis factor alpha (TNF-α) using WEHI-13VAR mouse fibroblasts.
WEHI-13VAR cells (mouse fibroblast cell line) were plated out in wells of a 96 well plate two hours prior to running the experiment at 50000 cells per well. […] After overnight incubation, cell viability was assessed using an MTT cell viability assay (R&D Systems, Inc., Minneapolis, Minn., cat #4890-050-K) following the product insert.

Row | Substance | effect on the viability of WEHI-13VAR mouse fibroblasts in the presence of infliximab
25 | SEQ ID NO: 13: infliximab affinity peptide of FIG. 1; also chemically synthesized, biotinylated (AGPPCIVTQLSDLSFCAP; cysteine pairing not given here; also: biotinylated, position not given here) | minimal effect
